Test results from patent US10919943B2, “Mutant proteins enabling agrochemical control of plant gene expression” (The Regents of the University of California, priority 2016, dated 2021).

Key:
[1] = test system: 35S::PYR1^MANDI transgenic strain; experiment: Thermography of leaf temperature after chemical treatment; assay type: in vivo, Arabidopsis thaliana; conditions: 1 μM then 10 μM mandipropamid, 24 hours after treatment; FIG. 10
Text: To examine the effects of over-expressing either PYR1*^-MANDI or HAB1* in Arabidopsis thaliana, we made 35S-driven GFP-PYR1*^-MANDI and GFP-HAB1* constructs by cloning the mutant genes into the binary vector pEGAD, and the resultant plasmids were transformed into Agrobacterium tumefaciens. The floral dip method was used to generate T0 transgenic seed for both constructs and the T0 seed was germinated in soil containing glufosinate to select for transgenic T1 plants. The PYR1*^-MANDI T1 plants isolated were grown for ˜5 weeks and then treated with mandipropamid, using comparisons to wild type Columbia plants and a previously constructed 35S::PYR1^MANDI transgenic strain as controls. The treated plants were thermographed 24 hours after chemical applications to examine leaf temperature, which increases after ABA responses are activated, due to reduced transpiration. To examine different mandipropamid concentrations, the plants were first treated with 1 μM mandipropamid and then 3 days later were treated again with 10 μM mandipropamid.

pUAS_GFP_mandi = experiment: Mandipropamid control of transcription, pUAS_GFP_mandi transient assay, anti-GFP Western blot; assay type: in vivo, N. benthamiana; conditions: 50 μM mandipropamid, 24 hours; FIG. 14
Protocol: To establish if the orthogonal mandipropamid response module could be used to control transcriptional responses in vivo, we designed an experimental system where PYR1*^-MANDI was fused to the GAL4 AD, and HAB1* fused to its BD. Nuclear export sequences were added to the BD-HAB1* component to reduce its access to the nucleus in the absence of mandipropamid and thereby reduce background transcription from the UAS. The constructs were assembled into a plant transformation vector along with a GAL4-responsive UAS in front of a CaMV minimal promoter driving GFP. The plant transformation vector used was a derivative of pCB308 (Xiang, Han, Lutziger, Wang, & Oliver, 1999) in which a kanamycin resistance marker cassette replaces the vector's centrally located uidA and bar expression cassettes. […]
The resultant construct (pUAS_GFP_mandi) was tested using transient assays in N. benthamiana, as described above. […] 24 hours later, leaf tissue was collected, frozen in liquid N2, and homogenized by bead beating using Precellys instrument (Bertin Technologies), for 6000 rpm for 30 seconds and then resuspended in SDS sample buffer containing protease inhibitor, separated by SDS-PAGE, electro-blotted onto nitrocellulose membrane and detected using an anti-GFP antibody as described in Example 4 above.

Structure (SMILES): C#CCOc1ccc(CCNC(=O)C(OCC#C)c2ccc(Cl)cc2)cc1OC (centres unmarked) [mandipropamid]
- leaf temperature [1]: strong increase in leaf temperature
- GFP production (pUAS_GFP_mandi): mandipropamid inducible GFP production
